We go through 19 compounds from patent US5032680A (priority 1988, dated 1991).

Data set [1] relates to Mouse transplantable tumour Sarcoma 180 cells. Nature of the data set: Measurement of antitumour activity value (Sarcoma 180 subcutaneously transplanted, oral administration). As to conditions: once a day for 9 consecutive days, tumour weight on day 12, Sarcoma 180, ICR/JCL mice; for ED50 (dose at which tumour proliferation-inhibitory rate is over 50%): 17280 min. Type of data set: in vivo, male ICR/JCL mice. As to the method:
Mouse transplantable tumour Sarcoma 180 cells (5×10^6 cells) were transplanted subcutaneously into male ICR/JCL mice (weighing 27-30 g) in the back. The test compounds were dissolved or suspended in a 0.5 weight % aqueous solution of CMC containing Tween 80 at the concentration of 0.1 weight % to afford test preparations. Using 7 animals per group, the test preparations were orally administered to each mouse at the dose of 0.1 ml/10 g mouse body weight once a day for consecutive 9 days from the following day of the day when the tumours were transplanted.
On the twelfth day from the day of tumour-transplantation, the average weight of tumours for each of the test compounds at the respective doses was measured. The weight was compared with the average weight of the tumours of the control group, and the tumour proliferation-inhibitory rates of the test compounds based on that of the control group were estimated at the respective dose.

A further data set relates to tumour. As to conditions: cited from earlier work.
The conditions of data set [2]: in vivo; cited from earlier work.
The conditions of data set [3]: in vivo; cited from earlier work. This is another data set of the same source.

Molecules are shown by their SMILES.

On to `O=c1[nH]c(=O)n([C@H]2C[C@H](O)[C@@H](COP(=O)(Oc3ccccc3)Oc3ccccc3)O2)cc1F` [Ex. 1, diphenyl 2'-deoxy-5-fluoro-5'-uridylate], for which the “ED50 (dose at which tumour proliferation-inhibitory rate is over 50%)” value in data set [1] amounted to 11.1 mg/kg.
The same measure, in the same setting: under `O=C(c1ccccc1)n1c(=O)c(F)cn([C@H]2C[C@H](O)[C@@H](COP(=O)(Oc3ccccc3)Oc3ccccc3)O2)c1=O` [Ex. 3, diphenyl 3-benzoyl-2'-deoxy-5-fluoro-5'-uridylate] stands 7.0 mg/kg; under `CC(C)=CCCC(C)CCOP(=O)(OC[C@H]1O[C@@H](n2cc(F)c(=O)[nH]c2=O)C[C@@H]1O)Oc1ccccc1` (stereo partly drawn) [Ex. 5, citroneryl phenyl 2'-deoxy-5-fluoro-5'-uridylate], 23.8 mg/kg; under `Cc1cc(OP(=O)(OC[C@H]2O[C@@H](n3cc(F)c(=O)[nH]c3=O)C[C@@H]2O)Oc2ccccc2)ccc1Cl` (stereo partly drawn) [Ex. 6, 4-chloro-3-methylphenyl phenyl 2'-deoxy-5-fluoro-5'-uridylate], 6.2 mg/kg.
The same measure, in the same setting: as for `O=c1[nH]c(=O)n([C@H]2C[C@H](O)[C@@H](COP(=O)(Oc3ccc(Cl)cc3)Oc3ccc(Cl)cc3)O2)cc1F` [Ex. 7, di-p-chlorophenyl 2'-deoxy-5-fluoro-5'-uridylate], the figure is 1.4 mg/kg; as for `O=c1[nH]c(=O)n([C@H]2C[C@H](O)[C@@H](COP(=O)(Oc3ccccc3Cl)Oc3ccccc3Cl)O2)cc1F` [Ex. 8, Di-o-chlorophenyl 2'-deoxy-5-fluoro-5'-uridylate], 10.0 mg/kg; as for `O=c1[nH]c(=O)n([C@H]2C[C@H](O)[C@@H](COP(=O)(Oc3cccc(Cl)c3)Oc3cccc(Cl)c3)O2)cc1F` [Ex. 9, Di-m-chlorophenyl 2'-deoxy-5-fluoro-5'-uridylate], 1.4 mg/kg.
The same measure, in the same setting: as for `O=c1[nH]c(=O)n([C@H]2C[C@H](O)[C@@H](COP(=O)(Oc3cccc(Cl)c3Cl)Oc3cccc(Cl)c3Cl)O2)cc1F` [Ex. 10, Di(2,3-dichlorophenyl) 2'-deoxy-5-fluoro-5'-uridylate], the figure is 3.6 mg/kg; as for `O=c1[nH]c(=O)n([C@H]2C[C@H](O)[C@@H](COP(=O)(Oc3ccc(Cl)cc3Cl)Oc3ccc(Cl)cc3Cl)O2)cc1F` [Ex. 11, Di(2,4-dichlorophenyl) 2'-deoxy-5-fluoro-5-uridylate], 1.5 mg/kg; as for `O=c1[nH]c(=O)n([C@H]2C[C@H](O)[C@@H](COP(=O)(Oc3ccc(Cl)c(Cl)c3)Oc3ccc(Cl)c(Cl)c3)O2)cc1F` [Ex. 12, Di(3,4-dichlorophenyl) 2'-deoxy-5-fluoro-5'-uridylate], 2.5 mg/kg.
Regarding `O=c1[nH]c(=O)n([C@H]2C[C@H](O)[C@@H](COP(=O)(Oc3ccc4c(c3)OCO4)Oc3ccc4c(c3)OCO4)O2)cc1F` [Ex. 13, Di(3,4-methylenedioxyphenyl) 2'-deoxy-5-fluoro-5'-uridylate], in data set [1], the “ED50 (dose at which tumour proliferation-inhibitory rate is over 50%)” value worked out at 25.0 mg/kg.
Still for that read-out and setting: under `N#Cc1ccc(OP(=O)(OC[C@H]2O[C@@H](n3cc(F)c(=O)[nH]c3=O)C[C@@H]2O)Oc2ccc(C#N)cc2)cc1` [Ex. 16, Di-p-cyanophenyl 2'-deoxy-5-fluoro-5'-uridylate] stands 6.1 mg/kg.
Still for that read-out and setting: under `O=c1[nH]c(=O)n([C@H]2C[C@H](O)[C@@H](COP(=O)(Oc3ccc(F)cc3)Oc3ccc(F)cc3)O2)cc1F` [Ex. 17, Di-p-fluorophenyl 2'-deoxy-5-fluoro-5'-uridylate] stands 1.3 mg/kg; under `O=c1[nH]c(=O)n([C@H]2C[C@H](O)[C@@H](COP(=O)(Oc3ccc(Br)cc3)Oc3ccc(Br)cc3)O2)cc1F` [Ex. 18, Di-p-bromophenyl 2'-deoxy-5-fluoro-5'-uridylate], 1.2 mg/kg.
On to `O=c1[nH]c(=O)n([C@H]2C[C@H](O)[C@@H](COP(=O)(Oc3ccc(C(F)(F)F)cc3)Oc3ccc(C(F)(F)F)cc3)O2)cc1F` [Ex. 19, Di-p-trifluoromethylphenyl 2'-deoxy-5-fluoro-5'-uridylate], for which the “ED50 (dose at which tumour proliferation-inhibitory rate is over 50%)” value in data set [1] was determined as 0.9 mg/kg.
The same measure, in the same setting: as for `CC(=O)O[C@H]1C[C@H](n2cc(F)c(=O)[nH]c2=O)O[C@@H]1COP(=O)(Oc1ccc(Cl)cc1)Oc1ccc(Cl)cc1` [Ex. 22, di-p-chlorophenyl 3'-acetyl-2'-deoxy-5-fluoro-5'-uridylate], the figure is 1.2 mg/kg.
Still for that read-out and setting: under `O=c1[nH]c(=O)n([C@H]2C[C@H](O)[C@@H](COP(=O)(Oc3ccc([N+](=O)[O-])cc3)Oc3ccc([N+](=O)[O-])cc3)O2)cc1F` [Ex. 24, di-p-nitrophenyl 2'-deoxy-5-fluoro-5'-uridylate] stands 5.4 mg/kg.
Same read-out and setting: as for `O=c1[nH]c(=O)n([C@H]2C[C@H](O)[C@@H](COP(=O)(Sc3ccc(Cl)cc3)Sc3ccc(Cl)cc3)O2)cc1F` [Ex. 26, 2'-deoxy-5-fluorouridine 5'-(S,S-di-p-chlorophenylphosphorodithioate)], the figure is 4.2 mg/kg.
`O=c1[nH]c(=O)n([C@H]2C[C@H](O)[C@@H](CO)O2)cc1F` [FdUrd, 2'-deoxy-5-fluorouridine]: the ED50 in data set [1] (Mus musculus, 288 h, read-out: ED50 (dose at which tumour proliferation-inhibitory rate is over 50%)) is 59.5 mg/kg. Moreover, the “tumour proliferation-inhibitory action (in words)” value with tumour (cytostatic potency test (in vivo)) is “extremely potent tumour proliferation-inhibitory action”. The “effect as compared with 5-fluorouracil (in words)” value in the data set with tumour (in vivo) is “can not be found to exhibit any particular superior effects as compared with 5-fluorouracil”. In data set [2], the “decomposition into 5-fluorouracil (in words)” value is “a large portion thereof is decomposed into 5-fluorouracil”; the “metabolism and excretion (in words)” value is “rapidly metabolized and excreted”. Moreover, the “toxicity of FdUrd (in words)” value in data set [3] was “the toxicity thereof is strong”.
